Results published in patent US20240374626A1, “METHODS OF ENHANCING MILK PRODUCTION IN LACTATING MAMMALIAN SUBJECTS” (priority 2023, published 2024).

Tested on: CK8+ luminal cells
Test: Contralateral intraductal injection: FACS DNA content analysis of CK8+ luminal cells
Format: in vivo, mouse
Experimental: Nulliparous analysis was performed using adult (10-12-week-old) female mice. For timed pregnancies and lactation analysis, CD-1 pregnant adult females were obtained from Charles Rivers. Embryos were examined at the time of mammary gland harvesting to confirm pregnancy state. […] Plugged mice were considered to be PD0.5 on the day of the observed plug. All females used in this study were age matched. Mice were anesthetized with isoflurane (VetOne, 501017) Prior to intraductal injections, hair was removed from around the nipples using Nair hair remover. Injections into the duct of the nipple were performed with 33 G needles (Hamilton, 7803-05) and a volume of 40 μl per gland. Right inguinal, abdominal and thoracic glands were injected with doxorubicin (1.5 μg per gland, Cayman Chemical, 15007), nucleosides (40 μl per gland, Millipore-Sigma, ES-008-D) or Mk-1775 (50 μg per gland, Cayman Chemical, 21266), and left glands were injected with PBS or DMSO (Thermo Scientific, BP231) diluted in PBS. Mechanically dissociated inguinal, abdominal, and thoracic mammary fat pads were prepared into cell suspension for flow cytometry or fluorescence-activated cell sorting (FACS). The lymph node was removed from abdominal glands. Glands were chopped using a mechanical tissue chopper and digested for 1 h at 37° C. in digestion media [RPM1 containing 1% FBS, collagenase IA (Sigma, C9891), hyaluronidase (Sigma, H3506) and DNAse I (Worthington, LS002007)]. […] Tissue was further digested using pre-warmed 0.25% Trypsin-EDTA (Thermo Fisher, 25200056), washed, and digested with 5 mg/ml of pre-warmed dispase II (Roche, 4942078001). Red blood cells were lysed using Ammonium Chloride Solution (Stem Cell Technologies, 07850). Cells were washed, resuspended and filter through a 70 μm cell strainer (Falcon, 08-771-2) and processed for downstream applications. For DNA content analysis of the mammary gland CK8^+ epithelial population, mammary gland cells suspension was obtained as described above. Cells were fixed in ice-cold 70% EtOH at a final concentration of 10^6 cells/ml. During fixation, cells were vigorously vortexed for 1 min to avoid the formation of cell aggregates. Cells were washed twice with washing buffer [1×PBS containing 5% FBS and 0.5% tween 20 (Fisher Chemical, BP337500)] and centrifuged at 2,000 rpm for 5 min at 4° C. Cell pellet was incubated for 1 h at room temperature with anti-CK8 (Developmental Studies Hybridoma Lab, TROMA-1), anti-GFP (Thermo Fisher, A01704) or corresponding rat (Thermo-Fisher, 10700) or rabbit (Thermo-Fisher, 10500C) IgG isotype controls. Cells were washed twice and incubated for 1 h at room temperature in darkness with FITC anti-Rat (Thermo Fisher, A24544) or FITC anti-Rabbit (Thermo Fisher, A16030) and APC anti-Rat (Jackson ImmunoResearch, 712-136-153). Cells were washed twice and resuspended in propidium iodide solution [1×PBS containing 25 μg/ml of propidium iodide (Thermo Fisher, P3566) and 100 μg/ml of RNAse (Thermo Fisher, 12091021)]. For DNA content analysis on HC11, cells were washed with 1×DPBS (GIBCO, 14190-250) and harvested using 0.05% Trypsin-EDTA (GIBCO, 25300-062). Cell suspension was washed with 1×DPBS and centrifuged at 1,000 rpm for 5 min at 4° C. Cell pellet was fixed in ice-cold 70% EtOH and then vortexed vigorously to avoid cell aggregates. After fixation, cells were washed with washing buffer [1×PBS (GIBCO, 14190136) supplemented with 5% FBS] and centrifuged at 2,000 rpm for 5 min at 4° C. The pellet was resuspended in propidium iodide solution. Cell suspensions were filtered through a 70 μm cell strainer (Falcon, 08-771-2) and analyzed using a BD LSRII cytometer or a BD FACS Aria II Cell Sorter. Populations were analyzed using FlowJo.

[1] = Mk-1775 IDI at PD16.5 vs contralateral DMSO, by LD5
[2] = doxorubicin IDI at PD12.5 vs contralateral DMSO, MGs at PD17.5

Row | Compound | decrease in 4C CK8+ population (in the overall population) (Mk-1775 IDI (50 μg per gland) at PD16.5 vs contralateral DMSO, at LD2) [%] | increase in 2C CK8+ population (in the overall population) (Mk-1775 IDI at PD16.5 vs contralateral DMSO, LD2) [%] | increase in 2C CK8+ population (in the overall population) (Mk-1775 IDI at PD16.5 vs contralateral DMSO, LD5) [%] | decrease in 4C CK8+ population (in the overall population) [1] [%] | decrease in >4C CK8+ population (in the overall population) [1] [%] | decrease in 2C luminal population (in the overall population) [2] [%] | increase in 4C luminal population (in the overall population) [2] [%] | increase in >4C luminal population (in the overall population) [2] [%]
1 | C=CCn1c(=O)c2cnc(Nc3ccc(N4CCN(C)CC4)cc3)nc2n1-c1cccc(C(C)(C)O)n1 [Mk-1775] | 19.4 | 7.7 | 12.4 | 3.2 | 16.31 |  |  | 
2 | COc1cccc2c1C(=O)c1c(O)c3c(c(O)c1C2=O)C[C@@](O)(C(=O)CO)C[C@@H]3O[C@H]1C[C@H](N)[C@H](O)[C@H](C)O1 [doxorubicin] |  |  |  |  |  | 5.23 | 14.86 | 47.1
